Data from patent publication US12025596B2, “6-oxo-pipecolic acid quantitation by mass spectrometry” (THE REGENTS OF THE UNIVERSITY OF COLORADO, priority 2018, dated 2024).
Where “and” joins values, the source holds several entries; their conditions need not be identical. Identical values can stand only once. Entries after “also recorded” stand apart in the source; their conditions may differ.

Assays:
[1] = 4-month biomarker stability study in urine samples; format: physicochemical, human; settings: for concentration: PDE urine; for decrease at 126 days: room temperature
From the text: Liquid chromatography tandem mass spectrometry experiments: Lysine metabolites were first analyzed based on previously published liquid chromatography tandem mass spectrometry (LC-MS/MS) methods (Struys, Jakobs 2007, Molecular Genetics and Metabolism 91:405; Yuzyuk et al. 2016, J Chromatogr B Analyt Technol Biomed Life Sci, 1017-1018:145-52). As the goal of this study was to replicate current newborn screening modalities, we focused on a non-derivatized MS/MS analytical method (Nagy et al. 2003, Rapid Commun Mass Spectrom 17:983-90). Samples were analyzed via electrospray ionization in positive ion mode (ESI+) using an Applied Biosystems Sciex 4000 (Applied Biosystems) equipped with a Shimadzu HPLC (Shimadzu Scientific Instruments) and a Leap auto-sampler (LEAP Technologies). Methanol (MeOH):acetonitrile (ACN) 200 μL 1:1 mixture was added to 100 μL of plasma, blood, urine, CSF or standard materials. Plasma and blood samples were centrifuged at 10,000 rpm and the supernatants used. Urine and CSF samples required no additional processing. […] Samples were analyzed using the following conditions: i) ion-spray voltage of 5500 V; ii) temperature, 450° C.; iii) collision using nitrogen gas with curtain gas (CUR) set at 10 and collisionally activated dissociation (CAD) set at 12; iv) ion source gas one (GS1) and two (GS2) were set at 30; v) entrance potential was set at 10 V; vi) quadruple one (Q1) and (Q3) were set on unit resolution; vii) dwell time was set at 200 msec.
Biomarker stability studies: In a 4-month stability study, fresh urine samples (400 μL) from two subjects were aliquoted into 1.5 mL Eppendorf tubes and stored either at room temperature (22±2° C.), freezer (−13±3° C.) or deep freezer (−77±3° C.) and sampled over four-months.
(§1) As a primary aim of this research was to evaluate biomarkers suitable for newborn screening, we analyzed blood spots (Whatman 903 Lot W-041) from two subjects and controls. […] A freeze-thaw study and a 4-month stability study was done in urine samples from subjects 1 and 2 (Table 4).
(§2) To quantify 6-Oxo-PIP and Δ^1-P6C/P6CH, we prepared standard curves ranging from 0.5-500 μM from control urine (FIGS. 5 and 6). In a freeze-thaw study (6-Oxo-PIP, FIG. 6; and P6C/P6CH, FIG. 7) and a 4-month stability study (FIG. 8 and FIG. 9B), fresh urine samples (400 μL) were aliquoted into 1.5 mL Eppendorf tubes and stored either at room temperature (22±2° C.), regular freezer (−13±3° C.) or deep freezer (−77±3° C.) and sampled over a four-month period. First, both biomarkers Δ^1-P6C/P6CH and 6-Oxo-PIP were stable via four freeze-thaw cycles (6-Oxo-PIP FIG. 6; and Δ^1-P6C/P6CH FIG. 7). The initial 6-Oxo-PIP concentrations observed with patient one and patient two were 298±23 and 440±4 μM, respectively. […] The original concentrations of Δ^1-P6C/P6CH for patient one and two were 16.1±1.9 μM and 27.1±2.0 μM, respectively, an order of magnitude less than 6-oxo-PIP. […] Even after 126 days storage, roughly half of the Δ^1-P6C/P6CH from the original sample (day 1) remained.

[2] = Four freeze-thaw cycle stability in urine; format: physicochemical, human; settings: urine from PDE patients
Method: as §1, §2

[3] = Blood spot stability at room temperature; format: physicochemical, human; settings: blood spots (Whatman 903) stored at room temperature
From the text: as §1

[4] = Cytosolic, S9, mitochondrial and plasma metabolism of lysine metabolites; format: in vitro ADME, human
Method: Cytosolic and mitochondrial metabolism of lysine metabolites: Human liver cytosol 100 μL (10 mg/mL) or S9 fraction 100 μL (20 mg/mL) and 100 μL NAD+ (1.2 mM final) in 400 μL PBS pH 7.4 were preincubated at 37° C. for 5 min, followed by addition of 100 μL Δ1-P6C (100 μM); 100 μL samples were taken at 0.5, 5, 20 and 50 min, added to 300 μL 1:1 MeOH:ACN and analysed by LC-MS/MS. To probe potential phase II metabolism, 100 μL human liver microsomes (20 mg protein/mL) were similarly incubated with 4.0 mM UDPGA.
Human liver mitochondria were freshly prepared by homogenization of a human liver sample with a Teflon pestle in 5% weight to volume Zheng buffer (Zheng et al. 1990, Biochim Biophys Acta 1019:1-10), and after centrifugation at 5600 g for 5 min, the supernatant was transferred to a centrifuge tube; this procedure was repeated on the resuspended pellet a second time. Both supernatants were combined, centrifuged at 37,500 g for 5 min, the resulting pellet resuspended in Zheng buffer, homogenized and similarly pelleted again, and resuspended in 300 μL Zheng buffer to provide a mitochondrial preparation, with protein concentration determined using the Bio-Rad Protein Assay. To access the mitochondrial matrix, the homogenate was subjected to 3 freeze-thaw cycles, followed by 2×7 bursts of sonication on ice using a Branson 450 digital sonifier with a 2-inch cup horn at 30% amplitude. Of this mitochondrial preparation 100 μL was similarly incubated with Δ1-P6C and analyzed as above.
Albeit small, the formation of 6-oxo-PIP raises the possibility of a second pathway. […] Thus, this alternative mechanism to AAA is not a major pathway.

[5] = 4-month biomarker stability study in urine samples; format: physicochemical, human; settings: PDE urine, −70° C.

In the case of `O=C1CCC[C@@H](C(=O)O)N1` [6-oxo-PIP, (S)-6-oxopiperidine-2-carboxylic acid], the concentration ([1]; Room Temperature, Subject 1, day 0) is reported as 298 ± 23 µM and 297.0 µM, the concentration ([1]; Room Temperature, Subject 1, day 0, listed as 6-Oxo-PIP) is reported as 298 ± 23 µM and the concentration ([1]; Room Temperature, Subject 1, day 1) is reported as 294.8 µM. It also gave a concentration ([1]; Room Temperature, Subject 1, day 2) of 283.5 µM, a concentration ([1]; Room Temperature, Subject 1, day 3) of 30.1 µM and a concentration ([1]; Room Temperature, Subject 1, day 5) of 257.6 µM. The concentration ([1]; Room Temperature, Subject 1, day 7) was 252.1 µM, the concentration ([1]; Room Temperature, Subject 1, day 10) was 234.7 µM and the concentration ([1]; Room Temperature, Subject 1, day 14) was 233.0 µM. The concentration ([1]; Room Temperature, Subject 1, day 21) was 197.5 µM, the concentration ([1]; Room Temperature, Subject 1, day 60) was 182.0 µM and the concentration ([1]; Room Temperature, Subject 1, day 126) was 170.0 µM. For the same compound, the concentration ([1]; Room Temperature, Subject 2, day 0) was 440 ± 4 µM and 440.1 µM, the concentration ([1]; Room Temperature, Subject 2, day 0, listed as 6-Oxo-PIP) was 440 ± 4 µM and the concentration ([1]; Room Temperature, Subject 2, day 1) was 390.8 µM. For the same compound, the concentration ([1]; Room Temperature, Subject 2, day 2) was 418.2 µM, the concentration ([1]; Room Temperature, Subject 2, day 3) was 387.7 µM and the concentration ([1]; Room Temperature, Subject 2, day 5) was 383.9 µM. It also gave a concentration ([1]; Room Temperature, Subject 2, day 7) of 346.0 µM, a concentration ([1]; Room Temperature, Subject 2, day 10) of 345.2 µM and a concentration ([1]; Room Temperature, Subject 2, day 14) of 330.2 µM. It also gave a concentration ([1]; Room Temperature, Subject 2, day 21) of 322.6 µM, a concentration ([1]; Room Temperature, Subject 2, day 60) of 312.3 µM and a concentration ([1]; Room Temperature, Subject 2, day 126) of 295.3 µM. For the same compound, the concentration ([1]; −15° C., Subject 1, day 0) was 284.8 µM, the concentration ([1]; −15° C., Subject 1, day 3) was 243.1 µM and the concentration ([1]; −15° C., Subject 1, day 7) was 260.8 µM. For the same compound, the concentration ([1]; −15° C., Subject 1, day 10) was 285.1 µM, the concentration ([1]; −15° C., Subject 1, day 14) was 219.7 µM and the concentration ([1]; −15° C., Subject 1, day 21) was 227.7 µM. It also gave a concentration ([1]; −15° C., Subject 1, day 60) of 218.4 µM, a concentration ([1]; −15° C., Subject 1, day 126) of 211.5 µM and a concentration ([1]; −15° C., Subject 2, day 0) of 387.6 µM. The concentration ([1]; −15° C., Subject 2, day 3) was 359.0 µM, the concentration ([1]; −15° C., Subject 2, day 7) was 345.0 µM and the concentration ([1]; −15° C., Subject 2, day 10) was 336.5 µM. The concentration ([1]; −15° C., Subject 2, day 14) was 385.3 µM, the concentration ([1]; −15° C., Subject 2, day 21) was 345.2 µM and the concentration ([1]; −15° C., Subject 2, day 60) was 322.3 µM. For the same compound, the concentration ([1]; −15° C., Subject 2, day 126) was 314.3 µM, the concentration ([1]; −70° C., Subject 1, day 0) was 284.8 µM and the concentration ([1]; −70° C., Subject 1, day 3) was 298.2 µM. The concentration ([1]; −70° C., Subject 1, day 7) was 271.9 µM, the concentration ([1]; −70° C., Subject 1, day 10) was 221.7 µM and the concentration ([1]; −70° C., Subject 1, day 14) was 218.9 µM. The concentration ([1]; −70° C., Subject 1, day 21) was 217.4 µM, the concentration ([1]; −70° C., Subject 1, day 60) was 211.3 µM and the concentration ([1]; −70° C., Subject 1, day 126) was 198.4 µM. It also gave a concentration ([1]; −70° C., Subject 2, day 3) of 356.4 µM, a concentration ([1]; −70° C., Subject 2, day 7) of 329.2 µM and a concentration ([1]; −70° C., Subject 2, day 10) of 380.3 µM. For the same compound, the concentration ([1]; −70° C., Subject 2, day 14) was 418.3 µM, the concentration ([1]; −70° C., Subject 2, day 21) was 320.1 µM and the concentration ([1]; −70° C., Subject 2, day 126) was 322.7 µM. The “stability at room temperature” value ([1]; urine samples stored at room temperature (22±2° C.)) was “considerably more stable than Δ^1-P6C/P6CH; also recorded: measurable for up to four months”, the “initial decrease within the first two weeks” value ([1]; urine, regardless of storage temperature) was 20-21% and the “decrease at 126 days” value ([1]; urine, subject 1) was 43%. For the same compound, the “decrease at 126 days” value ([1]; urine, subject 2) was 33%, the “stability via four freeze-thaw cycles” value [2] was “stable” and the “signal in blood spots” value [3] was “noted in the initial blood spot”. For the same compound, the “conversion to AAA (hydrolytic ring opening)” value (from here on “conversion to AAA”) ([4]; incubation with human S9) was “none of these experiments showed a conversion”, the “conversion to AAA” value ([4]; incubation with human cytosol) was “none of these experiments showed a conversion” and the “conversion to AAA” value ([4]; incubation with human plasma (e.g. esterase activity)) was “none of these experiments showed a conversion”. For the same compound, the concentration ([5]; Subject 2, day 0) was 387.6 µM and the concentration ([5]; Subject 2, day 60) was 340.7 µM.
